Experimental data reported in US20060068455A1, “GABA detection methods and applications” (priority 2004, published 2006).

Tested on: rat brain tissue
Assay: Real-time fluorescence detection of Ca^2+-dependent GABA release from rat neural tissue on GABA-T/SSADH sensor
Assay type: cell-based
Procedure: Adult Sprague-Dawley rats about 160 grams each were injected with an overdose of Nembutal. The brains or spinal cords were removed and washed several times with PBS and then embedded with 5% low melting temperature agarose (NuSieve® GAG® agarose, FMC BioProducts, Me.). The embedded brains or spinal cords were cut with a Vibratome (VT10003, LEICA Microsystems, Germany) in 300 μm tissue sections. Each tissue section was placed on a GABA-T/SSADH fluorometric silica glass sensor and then GABA released from the tissue sections were measured with Fluoroskan Ascent (Labsystems, Finland).
The silica glass sensors of the present invention may be used to assay neural tissue and agents which affect neural tissue. […] Neural tissue, […], was cultured on GABA-T/SSADH sensors prepared inside tissue culture vessels. […] Therefore, GABA release is stimulated by Ca^2+.
The effect of various agents on GABA release in rat neural tissue were assayed in real-time with a GABA-T/SSADH sensor. The agents tested were 2-APB (a cell-permeable IP3 receptor antagonist), Thapsigargin (a blocker of store-specific Ca^2+-ATPase), Ryanodine and caffeine (increase internal Ca^2+ level), and KN-93 (CAM kinase II inhibitor).
FIGS. 10 and 11 show the effect of Thapsigargin and Ryanodine on Ca^2+-dependent GABA release, respectively. Therefore, the silica glass sensors of the present invention may be used for assaying the effect of various agents on cells and tissues cultured thereon.

SMILES | less GABA release (75 μM 2-APB without 10 mM CaCl2 compared with 75 μM 2-APB with 10 mM CaCl2, FIG. 9) | effect on Ca^2+-dependent GABA release (75 μM 2-APB, rat neural tissue, FIG. 9) | GABA release versus controls (100 mM Ca^2+, rat brain tissue, FIG. 8)
NCCOB(c1ccccc1)c1ccccc1 [2-APB] | about 41.9% | inhibits Ca^2+-dependent GABA release | 
[Ca+2].[Cl-].[Cl-] [Ca^2+] |  |  | released more GABA than controls
